The numbers were not newly measured in patent publication US20040229940A1, “Analeptic and antidepressant combinations” (Cephalon Inc, priority 2003, published 2004), which cites them from elsewhere.

The subject of data set [1] is rats. The following applies: rats (Touret et al., 1995; Edgar and Seidel, 1997).
The subject of data set [2] is English bulldog sleep disordered breathing model. The following applies: sleep apnea model, English bulldog (Panckeri et al, 1996).
The test system of data set [3] is canines. As to conditions: canines (Shelton et al., 1995).
Data set [4] concerns cats. The following applies: cats (Lin et al., 1992).
Data set [5] relates to narcoleptic canine. The following applies: narcolepsy model, narcoleptic canine (Shelton et al, 1995).
Data set [6] relates to non-human primates. As to conditions: non-human primates (Hernant et al, 1991).
The subject of data set [7] is major depressive disorder. As to conditions: at 6 weeks.

On to `NC(=O)C[S+]([O-])C(c1ccccc1)c1ccccc1` (stereo not shown) [Modafinil, 2-(benzhydrylsulfinyl) acetamide], for which the wakefulness entry in data set [1], in data set [2], in data set [3], in data set [4], in data set [5] and in data set [6] was “promotes wakefulness” throughout.
Consider `CNCCC(Oc1ccc(C(F)(F)F)cc1)c1ccccc1` (stereo not shown) [fluoxetine], for which the response result in data set [7] is “about 50%”.
